The text below walks through data of paper PMC4078884 (Chemical science (Royal Society of Chemistry : 2010), 2014).

SMILES strings stand for the structures.

One assay addresses T1, EcIspG (Escherichia coli, UniProt P62620).
T1 sequence (P62620 1-372): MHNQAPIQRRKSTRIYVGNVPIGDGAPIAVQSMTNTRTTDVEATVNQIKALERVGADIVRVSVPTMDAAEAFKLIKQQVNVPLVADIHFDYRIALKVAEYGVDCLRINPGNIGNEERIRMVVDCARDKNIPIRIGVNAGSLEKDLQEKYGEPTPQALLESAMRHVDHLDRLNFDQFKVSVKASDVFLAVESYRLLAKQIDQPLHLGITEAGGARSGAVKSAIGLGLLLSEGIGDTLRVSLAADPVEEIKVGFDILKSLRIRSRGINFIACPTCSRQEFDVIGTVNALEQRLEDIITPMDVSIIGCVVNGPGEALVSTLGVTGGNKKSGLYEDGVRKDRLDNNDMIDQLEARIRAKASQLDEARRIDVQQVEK
Nature of the assay: CW-EPR. It counts as binding. The following applies: 80 eq dithionite, 8 K.

In another assay the target is T2, PaIspG (Pseudomonas aeruginosa, UniProt Q9HXJ4).
T2 sequence (Q9HXJ4 1-371): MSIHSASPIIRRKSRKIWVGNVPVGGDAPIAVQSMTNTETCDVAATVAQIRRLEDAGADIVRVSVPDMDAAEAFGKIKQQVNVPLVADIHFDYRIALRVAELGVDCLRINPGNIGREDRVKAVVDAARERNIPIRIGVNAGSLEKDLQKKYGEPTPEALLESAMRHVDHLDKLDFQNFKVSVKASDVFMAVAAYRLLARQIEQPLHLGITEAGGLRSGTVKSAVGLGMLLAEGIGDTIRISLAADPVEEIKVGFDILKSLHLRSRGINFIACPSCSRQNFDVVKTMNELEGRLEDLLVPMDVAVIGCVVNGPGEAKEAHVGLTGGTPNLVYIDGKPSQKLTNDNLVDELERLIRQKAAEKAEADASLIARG
As to the kind of experiment: CW-EPR. It counts as binding. The following applies: 80 eq dithionite, 8 K.

On to `C/C(=C\COP(=O)(O)OP(=O)(O)O)CS` [compound 8, thiolo-HMBPP], for which the CW-EPR result at EcIspG was “E. coli (A, D)”; on PaIspG, “P. aeruginosa (B, E)”.
